For series [1], the target named is T1, MET (Homo sapiens, UniProt P08581). The series can be described thus: Test A: HTRF MET assay in 96-well format. The series is classed as biochemical. More on the design: The His-Tev-MET (956-1390) recombinant DNA in pFastBac (Invitrogen) is transfected into insect cells; His-Tev (histidine tag with TEV cleavage site) (N, cleaved yes); made in house; host or cells: SF21 insect cells (baculovirus, pFastBac). The following applies: MET 5 nM, 10 μM ATP, poly-(GAT). The protocol: The His-Tev-MET (956-1390) recombinant DNA in pFastBac (Invitrogen) is transfected into insect cells and, after several viral amplification steps, the final baculovirus stock is tested for the expression of the protein of interest.
After infection for 72 h at 27° C. with the recombinant virus, SF21 cell cultures are harvested by centrifugation and the cell pellets are stored at −80° C.
The cell pellets are resuspended in the lysis buffer (buffer A [50 mM HEPES, pH 7.5, 250 mM NaCl, 10% glycerol, 1 mM TECP]; +cocktail of protease inhibitors, Roche Diagnostics, without EDTA, ref 1873580), stirred at 4° C. until the mixture is homogeneous, and then lysed mechanically using a “Dounce” type apparatus.
After centrifugation, the lysis supernatant is incubated for 2 h at 4° C. with nickel chelate resin (His-Trap 6 Fast Flow™, GE HealthCare). After washing with 20 volumes of buffer A, the suspension is packed into a column, and the proteins are eluted with a gradient of buffer B (buffer A+290 mM imidazole).
The fractions containing the protein of interest, for the purpose of electrophoretic analysis (SDS PAGE), are combined, concentrated by ultrafiltration (10 kDa cut-off) and injected onto an exclusion chromatography column (Superdex™ 200, GE HealthCare) equilibrated in buffer A.
After enzymatic cleavage of the histidine tag, the protein is reinjected onto a new IMAC nickel chelate chromatography column (His-Trap 6 Fast Flow™, GE HealthCare) equilibrated in buffer A. The fractions eluted with a gradient of buffer B and containing the protein of interest after electrophoresis (SDS PAGE) are finally combined and stored at −80° C.
For the production of autophosphorylated protein, the previous fractions are incubated for 1 h at ambient temperature after the addition of 2 mM ATP, 2 mM MgCl2 and 4 mM Na3VO4. After the reaction has been stopped with 5 mM of EDTA, the reaction mixture is injected onto a HiPrep desalifying column (GE HealthCare) pre-equilibrated in buffer A+4 mM Na3VO4, and the fractions containing the protein of interest (SDS PAGE analysis) are combined and stored at −80° C. The degree of phosphorylation is verified by mass spectrometry (LC-MS) and by peptide mapping.
MET at a final concentration of 5 nM is incubated in a final volume of 50 μl of enzymatic reaction in the presence of the test molecule (for a final concentration range of from 0.17 nM to 10 μM, 3% DMSO final concentration) in 10 mM MOPS buffer, pH 7.4, 1 mM DTT, 0.01% Tween 20. The reaction is initiated with the substrate solution to obtain final concentrations of 1 μg/ml poly-(GAT), 10 μM ATP and 5 mM MgCl2. After incubation for 10 min at ambient temperature, the reaction is stopped with a 30 μl mix so as to obtain a final solution of 50 mM Hepes, pH 7.5, 500 mM potassium fluoride, 0.1% BSA and 133 mM EDTA in the presence of 80 ng of streptavidin 61SAXLB Cis-Bio Int. and 18 ng of anti-phosphotyrosine Mab PT66-Europium Cryptate per well. After incubation for 2 hours at ambient temperature, the reading is taken at 2 wavelengths, 620 nm and 665 nm, on a reader for the TRACE/HTRF technique, and the % inhibition is calculated from the 665/620 ratios.
Target sequence in this assay (P08581 956-1390): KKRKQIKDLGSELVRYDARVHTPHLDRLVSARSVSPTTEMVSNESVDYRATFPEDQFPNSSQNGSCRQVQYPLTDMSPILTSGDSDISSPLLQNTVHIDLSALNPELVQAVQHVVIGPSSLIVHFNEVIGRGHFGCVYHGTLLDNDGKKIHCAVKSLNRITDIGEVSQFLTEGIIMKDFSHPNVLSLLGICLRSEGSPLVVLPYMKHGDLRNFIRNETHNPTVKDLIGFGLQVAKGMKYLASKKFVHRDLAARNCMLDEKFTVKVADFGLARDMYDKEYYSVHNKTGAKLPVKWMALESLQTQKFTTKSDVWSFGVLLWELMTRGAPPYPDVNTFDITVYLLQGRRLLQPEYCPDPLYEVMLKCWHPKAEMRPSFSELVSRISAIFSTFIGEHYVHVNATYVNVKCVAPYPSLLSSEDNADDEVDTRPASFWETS
(In TR-FRET formats the signal depends on donor and acceptor labels being close together.)

In series [2] the target is T1, MET. The series can be described thus: Test B: inhibition of the autophosphorylation of MET, ELISA technique (pppY1230,1234,1235) in MKN45 cells. In kind it is cell-based. The arrangement: endogenous in cells; host or cells: MKN45 cells. Conditions: 1 h treatment, phosphoMET ELISA. Here is the method:
B) Test B: Inhibition of the autophosphorylation of MET; ELISA technique (pppY1230,1234,1235) a) Cell lysates: MKN45 cells are seeded into 96-well plates (cell coat BD polylysine) at 20 000 cells/well in 200 μl in RPMI medium+10% FCS+1% L-glutamine. They are left to adhere for 24 hours in an incubator.
The cells are treated the day after seeding with the products at 6 concentrations, in duplicate, for 1 h. At least 3 control wells are treated with the same final amount of DMSO.
Product dilution: Stock at 10 mM in pure DMSO—range from 10 mM to 30 μM with an increment of 3 in pure DMSO—intermediate dilutions to 1/50 in culture medium and then removal of 10 μl added directly to the cells (200 μl): final range of 10 000 to 30 nM.
At the end of the incubation, the supernatant is carefully removed and rinsing is performed with 200 μl of PBS. Next, 100 μl of lysis buffer are placed directly in the wells on ice and incubated at 4° C. for 30 minutes. Lysis buffer: 10 mM Tris HCl, pH 7.4, 100 mM NaCl, 1 mM EDTA, 1 mM EGTA, 1% Triton X-100, 10% glycerol, 0.1% SDS, 0.5% deoxycholate, 20 mM NaF, 2 mM Na3VO4, 1 mM PMSF and cocktail of antiproteases.
The 100 μl of lysates are transferred into a V-bottomed polypropylene plate and the ELISA is performed immediately, or the plate is frozen at −80° C.
70 μl of kit dilution buffer+30 μL of cell lysate, or 30 μl of lysis buffer for the blanks, are added to each well of the kit plate. Incubation is carried out for 2 h with gentle agitation at ambient temperature.
The wells are rinsed 4 times with 400 μl of kit washing buffer. Incubation is carried out with 100 μl of anti-phospho MET antibody for 1 hour at ambient temperature.
The wells are rinsed 4 times with 400 μl of kit washing buffer. Incubation is carried out with 100 μl of anti-rabbit HRP antibody for 30 minutes at ambient temperature (except for the wells of chromogen alone).
The wells are rinsed 4 times with 400 μl of kit washing buffer. 100 μL of chromogen are introduced and incubation is carried out for 30 minutes in the dark at ambient temperature.
The reaction is stopped with 100 μl of stop solution. The plate is read without delay at […], 0.1 second on a Wallac Victor plate reader.
Target sequence in this assay (P08581 25-1390): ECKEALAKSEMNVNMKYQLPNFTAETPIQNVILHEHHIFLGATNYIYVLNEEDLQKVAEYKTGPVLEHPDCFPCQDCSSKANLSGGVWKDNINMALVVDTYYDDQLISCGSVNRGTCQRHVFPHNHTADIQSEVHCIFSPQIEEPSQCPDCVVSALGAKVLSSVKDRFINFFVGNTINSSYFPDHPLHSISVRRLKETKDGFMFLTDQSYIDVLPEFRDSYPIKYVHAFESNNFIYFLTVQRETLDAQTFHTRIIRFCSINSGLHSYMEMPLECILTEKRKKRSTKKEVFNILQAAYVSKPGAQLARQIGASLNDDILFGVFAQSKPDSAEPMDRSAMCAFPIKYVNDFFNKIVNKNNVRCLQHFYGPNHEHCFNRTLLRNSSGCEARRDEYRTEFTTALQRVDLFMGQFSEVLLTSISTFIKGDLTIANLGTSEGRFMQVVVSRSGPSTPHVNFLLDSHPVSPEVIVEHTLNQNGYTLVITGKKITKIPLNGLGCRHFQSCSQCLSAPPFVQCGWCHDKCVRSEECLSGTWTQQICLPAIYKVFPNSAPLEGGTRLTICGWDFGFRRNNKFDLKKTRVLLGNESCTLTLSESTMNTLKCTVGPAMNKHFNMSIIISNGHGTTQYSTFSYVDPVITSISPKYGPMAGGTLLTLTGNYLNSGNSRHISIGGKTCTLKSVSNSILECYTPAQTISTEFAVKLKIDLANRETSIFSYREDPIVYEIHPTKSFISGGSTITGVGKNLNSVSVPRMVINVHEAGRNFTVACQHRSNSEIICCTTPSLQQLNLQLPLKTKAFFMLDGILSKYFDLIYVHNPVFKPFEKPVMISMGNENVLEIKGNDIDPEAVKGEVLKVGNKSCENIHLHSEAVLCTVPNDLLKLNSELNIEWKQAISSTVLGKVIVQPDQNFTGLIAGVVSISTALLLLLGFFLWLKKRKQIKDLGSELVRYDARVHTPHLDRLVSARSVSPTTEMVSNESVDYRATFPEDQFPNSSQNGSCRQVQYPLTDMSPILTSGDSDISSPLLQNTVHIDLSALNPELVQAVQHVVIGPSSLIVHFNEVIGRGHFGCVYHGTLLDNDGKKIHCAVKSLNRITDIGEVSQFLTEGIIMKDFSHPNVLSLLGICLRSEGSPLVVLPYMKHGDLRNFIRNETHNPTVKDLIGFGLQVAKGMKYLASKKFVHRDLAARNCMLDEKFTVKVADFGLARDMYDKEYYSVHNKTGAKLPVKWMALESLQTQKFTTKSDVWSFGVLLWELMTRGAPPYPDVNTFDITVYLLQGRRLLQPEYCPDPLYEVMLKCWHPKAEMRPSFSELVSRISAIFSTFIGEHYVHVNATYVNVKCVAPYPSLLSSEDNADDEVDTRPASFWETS
On the technique in general: ELISA stands for enzyme-linked immunosorbent assay.

The subject of series [3] is HCT116 cells and MKN45 cells. The series can be described thus: Test C: measurement of cell proliferation by 14C-thymidine pulse. The series is classed as cell-based. Conditions: 14C-thymidine incorporation, 96 h of treatment; cell line not given. The protocol:
The cells are seeded into Cytostar 96-well plates in 180 μl for 4 hours at 37° C. and 5% CO2: HCT116 cells in a proportion of 2500 cells per well in DMEM medium+10% foetal calf serum+1% L-glutamine, and MKN45 cells in a proportion of 7500 cells per well in RPMI medium+10% foetal calf serum+1% L-glutamine. After these 4 hours of incubation, the products are added in 10 μl as a […] concentrated solution according to the dilution method mentioned for the ELISA. The products are tested at 10 concentrations in duplicate from 10 000 nM to 0.3 nM with an increment of 3.
After treatment for 72 h, 10 μl of ^14C-thymidine at 10 μCi/ml are added so as to obtain 0.1 μCi per well. The ^14C-thymidine incorporation is measured on a Micro-Beta machine (Perkin-Elmer) after 24 hours of pulse and 96 h of treatment.
All the steps of the assay are automated on BIOMEK 2000 or TECAN stations.
In general terms: Uptake of a labelled nucleoside into DNA is a usual measure of proliferation.

Usually melting point stands for the temperature, or range, at which the solid turns liquid. For orientation: IC50 means the concentration that gives 50% inhibition.

Structures can show the parent of a compound that is named as a salt.

As to `O=C(Nc1nc2ccc(Sc3nnc4ccc(-c5cnn(C6CCNCC6)c5)cn34)cc2s1)C1CC1` (as salt: hydrochloride) [Example 16, N-(6-{[6-(1-piperidin-4-yl-1H-pyrazol-4-yl)[1,2,4]triazolo[4,3-a]pyridin-3-yl]sulphanyl}-1,3-benzothiazol-2-yl)cyclopropanecarboxamide], the melting point was more than 260 °C.

Take `Nc1nc2ccc(Sc3nnc4ccccn34)cc2s1` [Example 1, 6-([1,2,4]triazolo[4,3-a]pyridin-3-ylsulphanyl)-1,3-benzothiazol-2-amine]: the melting point fell in the range of 260 to 266 °C. Moreover, on MET [1], the IC50 is less than 500 nM.

Compound `O=C(Nc1nc2ccc(Sc3nnc4ccccn34)cc2s1)C1CC1` [Example 2, N-[6-([1,2,4]triazolo[4,3-a]pyridin-3-ylsulphanyl)-1,3-benzothiazol-2-yl]cyclopropanecarboxamide] displayed a melting point of 187 to 190 °C. Further, the IC50 on MET [1] is less than 100 nM. In addition, at MET [2], the IC50 was more than 500 nM. Moreover, in series [3], the IC50 was less than 1000 nM.

Turning to `O=C(NCCN1CCOCC1)Nc1nc2ccc(Sc3nnc4ccccn34)cc2s1` [Example 3, 1-[2-(morpholin-4-yl)ethyl]-3-[6-([1,2,4]triazolo[4,3-a]pyridin-3-ylsulphanyl)-1,3-benzothiazol-2-yl]urea], the melting point fell in the range of 204 to 207 °C. In addition, the IC50 on MET [1] is less than 100 nM. Further, the IC50 at MET [2] is less than 100 nM. The compound further had an IC50 in series [3] of less than 1000 nM.

In the case of `CN1CCN(CCNC(=O)Nc2nc3ccc(Sc4nnc5ccccn45)cc3s2)CC1` [Example 4, 1-[2-(4-methylpiperazin-1-yl)ethyl]-3-[6-([1,2,4]triazolo[4,3-a]pyridin-3-ylsulphanyl)-1,3-benzothiazol-2-yl]urea], the melting point lay in the range of 180 to 185 °C. Besides, on MET [1], the concentration for half-maximal inhibition (IC50) was less than 100 nM. For the same compound, the IC50 against MET [2] is less than 100 nM. This compound displayed an IC50 in series [3] of less than 1000 nM.

Regarding `Nc1nc2ccc(Sc3nnc4ccc(I)cn34)cc2s1` [Example 6, 6-[(6-iodo[1,2,4]triazolo[4,3-a]pyridin-3-yl)sulphanyl]-1,3-benzothiazol-2-amine], the concentration for half-maximal inhibition (IC50) at MET [1] is less than 100 nM; in series [3], less than 1000 nM.

With `O=C(Nc1nc2ccc(Sc3nnc4ccc(-c5ccc(F)cc5)cn34)cc2s1)C1CC1` [Example 8, N-{6-[6-(4-fluorophenyl)[1,2,4]triazolo[4,3-a]pyridin-3-ylsulphanyl]-1,3-benzothiazol-2-yl}cyclopropanecarboxamide], the IC50 on MET [1] was less than 100 nM; against MET [2], less than 100 nM; in series [3] it was less than 1000 nM.

On to `Cn1cc(-c2ccc3nnc(Sc4ccc5nc(N)sc5c4)n3c2)cn1` [Example 9, 6-{[6-(1-methyl-1H-pyrazol-4-yl)[1,2,4]triazolo[4,3-a]pyridin-3-yl]sulphanyl}-1,3-benzothiazol-2-amine], for which the results for the IC50 (at MET [1]; against MET [2]; in series [3]) were less than 100 nM, more than 500 nM and less than 1000 nM, respectively.

With `Cn1cc(-c2ccc3nnc(Sc4ccc5nc(NC(=O)C6CC6)sc5c4)n3c2)cn1` [Example 10, N-(6-{[6-(1-methyl-1H-pyrazol-4-yl)[1,2,4]triazolo[4,3-a]pyridin-3-yl]sulphanyl}-1,3-benzothiazol-2-yl)cyclopropanecarboxamide], the IC50 on MET [1] was less than 100 nM; against MET [2], less than 100 nM; in series [3], less than 1000 nM.

Regarding `O=C(Nc1nc2ccc(Sc3nnc4ccc(-c5cnn(CCOC6CCCCO6)c5)cn34)cc2s1)C1CC1` (centres unmarked) [Example 14, N-(6-{[6-(1-[2-(tetrahydro-2H-pyran-2-yloxy)ethyl]-1H-pyrazol-4-yl)[1,2,4]triazolo[4,3-a]pyridin-3-yl]sulphanyl}-1,3-benzothiazol-2-yl)cyclopropanecarboxamide], the IC50 was less than 100 nM on MET [1], less than 100 nM against MET [2] and less than 1000 nM in series [3].

Regarding `O=C(Nc1nc2ccc(Sc3nnc4ccc(-c5cnn(CCO)c5)cn34)cc2s1)C1CC1` [Example 15, N-(6-{[6-(1-(2-hydroxyethyl)-1H-pyrazol-4-yl)[1,2,4]triazolo[4,3-a]pyridin-3-yl]sulphanyl}-1,3-benzothiazol-2-yl)cyclopropanecarboxamide], the IC50 on MET [1] was less than 100 nM; at MET [2], less than 100 nM; in series [3], less than 1000 nM.

With `O=C(Nc1nc2ccc(Sc3nnc4ccc(-c5cnn(C6CCNCC6)c5)cn34)cc2s1)C1CC1` [Example 16, N-(6-{[6-(1-piperidin-4-yl-1H-pyrazol-4-yl)[1,2,4]triazolo[4,3-a]pyridin-3-yl]sulphanyl}-1,3-benzothiazol-2-yl)cyclopropanecarboxamide], the IC50 was less than 100 nM on MET [1], less than 100 nM on MET [2] and less than 1000 nM in series [3].

Source of the values: US20110263594A1, “NOVEL TRIAZOLO(4,3-A)PYRIDINE DERIVATIVES, PROCESS FOR THE PREPARATION THEREOF, USE THEREOF AS MEDICAMENTS, PHARMACEUTICAL COMPOSITIONS AND NOVEL USE, IN PARTICULAR AS MET INHIBITORS” (SANOFI-AVENTIS, priority 2008, published 2011).
